According to PubChem BioAssay (NCI):
≈ marks a conversion by molar mass, not a printed value. Where “and” joins values, the source holds several entries; their conditions need not be identical. Equal entries are not always repeated.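 Five concentrations, 48 hours, 96-well plates. GI50 marks 50% less growth. At the TGI there is no net growth.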 Where a SMILES comes first, the peptide text is derived from it. [ ]: non-standard residue; d: D form. The star is where a group is joined. NMeF = CN[CH](Cc1ccccc1)C(=O)O; NMeV = CN[CH](C(=O)O)C(C)C; Boc = CC(C)(C)OC(=O)*; OBn = c1ccc(CO*)cc1

Tests used:
Assay in all cases: NCI anticancer screen, dose series, 48 h
[1] = test system: SK-MEL-2 melanoma
[2] = test system: LOX IMVI melanoma
[3] = test system: SF-295 CNS
[4] = test system: SR leukemia
[5] = test system: SN12C renal
[6] = test system: COLO 205 colon
[7] = test system: KM12 colon
[8] = test system: SK-OV-3 ovarian
[9] = test system: MDA-MB-435
[10] = test system: SF-539 CNS
[11] = test system: SNB-75 CNS

Compound | TGI [1] | TGI [2] | TGI [3] | TGI [4] | TGI [5] | TGI [6] | TGI [7] | TGI [8] | GI50 [1] | GI50 [3] | GI50 [9] | TGI [9] | GI50 [7] | TGI [10] | TGI [11] | GI50 [10] | GI50 [2] | GI50 [5]
S=C1NC2=C(CSC/C2=C\c2ccc(Cl)cc2)C(c2ccc(Cl)cc2)N1 (configuration not stated) | > 100 µM | > 100 µM | > 100 µM | > 100 µM | > 100 µM | 32.7 µM | > 100 µM | > 100 µM | – | – | – | – | – | – | – | – | – | –
Cc1nc2nc(C)n(CCN3CCOCC3)c(=O)c2c(-c2cccc([N+](=O)[O-])c2)c1C(=O)CCCCCCCCCCN1CCC(c2ccccc2)(c2ccccc2)CC1 | 4.76 µg/mL | – | 2.65 µg/mL | – | – | – | 4.46 µg/mL | – | 2.55 µg/mL | 0.78 µg/mL (≈ 0.96 µM) | 1.9 µg/mL (≈ 2.34 µM) | 3.79 µg/mL | 2.43 µg/mL | – | – | – | – | –
Cc1cc(O)c2c(c1)C(=O)c1c(c(O)cc(O)c1-c1c(O)cc(O)c3c1C(=O)c1cc(C)cc(O)c1C3=O)C2=O | 40.7 µM | 50.2 µM | 38.3 µM | – | 41.2 µM | > 71.7 µM | 64.2 µM | 62.6 µM | – | – | – | – | – | 36.6 µM | 66.1 µM | – | – | –
Nc1nc(SCC(=O)c2ccccc2)c2[nH]cnc2n1 | > 100 µM | > 100 µM | > 100 µM | > 100 µM | > 100 µM | > 100 µM | > 100 µM | > 100 µM | – | – | – | – | – | > 100 µM | 82.6 µM | – | – | –
Cc1ccc(Nc2cccc3c2C(=O)c2cccc(Nc4ccc(C)cc4S(=O)(=O)O)c2C3=O)c(S(=O)(=O)O)c1 | > 100 µM | – | – | > 100 µM | > 100 µM | > 100 µM | > 100 µM | > 100 µM | – | – | – | – | – | > 100 µM | > 100 µM | – | – | –
CC(=O)[O-].CC(=O)[O-].O=C(N/N=C/c1cc(Cl)cc(Cl)c1[OH2+])c1ccncc1.[Mn+2] | 8.38 µM | 15.2 µM | 7.48 µM | 4.4 µM | 21.2 µM | 10.9 µM | 23.8 µM | 51.1 µM | 3.85 µM | – | – | – | – | 13.4 µM | 30.2 µM | – | – | –
CC(C)C(NC(=O)OC(C)(C)C)C(=O)N(C)C(Cc1ccccc1)C(=O)N(C)C(C(=O)OCc1ccccc1)C(C)C (stereo not drawn) (Boc-Val-[NMeF]-[NMeV]-OBn; configuration not given here) | – | 35.7 µM and > 100 µM | > 100 µM | > 100 µM and 96.2 µM | > 100 µM | > 100 µM | > 100 µM | > 100 µM | – | – | – | – | 38.2 µM and 82.9 µM | > 100 µM | – | 16.4 µM and 78.4 µM | 16.3 µM and 62.9 µM | 44.3 µM and > 100 µM
Cc1cc(=O)oc2c1cc1ccc3cccc4ccc2c1c34 | > 100 µM | > 100 µM | > 100 µM | – | > 100 µM | > 100 µM | – | > 100 µM | – | – | – | – | – | > 100 µM | 98.4 µM | – | – | –
O=C(NN1C(=O)CS(=O)(=O)C1c1ccc(Cl)c(Cl)c1)c1ccncc1 (configuration not stated) | > 100 µM | > 100 µM | > 100 µM | – | > 100 µM | > 100 µM | > 100 µM | > 100 µM | – | – | – | – | – | > 100 µM | > 100 µM | – | – | –
O=C1Nc2ccc(Br)cc2/C1=N/S(=O)(=O)O | 22.4 µM | 28 µM | > 100 µM | – | 37 µM | > 100 µM | > 100 µM | > 100 µM | – | – | – | 22.7 µM | – | – | > 100 µM | – | – | –
C=C1CC(OC)(C(OC)C(=O)N[C@H]2OCO[C@H]3C2O[C@H](C[C@@H](COC)OC)C(C)(C)C3OC)O[C@H](C)[C@@H]1C (some centres not stated) | 14.9 µM | > 47 µM | 3.28 µM | – | > 47 µM | 4.72 µM | > 47 µM | 8.12 µM | – | – | – | – | – | 2.85 µM | 9.99 µM | – | – | –
CCOC(=O)C1=C(C)N(c2ccc(Cl)cc2)C2(O)C=CC(=O)C3=C(O)c4ccccc4C(=O)C312 (configuration not stated) | 16.2 µM | 14 µM | 22.4 µM | – | 13.5 µM | 11.7 µM | 20.4 µM | 30.7 µM | – | – | – | 11.3 µM | – | 18.1 µM | – | – | – | –
CCOC(=O)[C@@H]1[C@@H](c2ccccc2)N(C)O[C@@]1(c1ccccc1)C(F)(F)F | > 100 µM | > 100 µM | > 100 µM | – | > 100 µM | > 100 µM | > 100 µM | > 100 µM | – | – | – | > 100 µM | – | – | > 100 µM | – | – | –
CCN(CC)C(=O)CCn1cc(F)c(=O)[nH]c1=O | > 100 µM | > 100 µM | > 100 µM | > 100 µM | > 100 µM | > 100 µM | > 100 µM | – | – | – | – | – | – | > 100 µM | > 100 µM | – | – | –
Cc1ccc(N2C(=O)C3c4[nH]c5ccc(C)cc5c4C4CCC(C(C)(C)C)CC4C3C2=O)cc1 (configuration not stated) | 99.5 µM | 55.6 µM | 40.7 µM | – | 27.3 µM | > 100 µM | 62.4 µM | – | – | – | – | 55.1 µM | – | – | – | – | – | –
CNC(=O)C(C)Oc1ccc(OCC2CCCCC2)cc1 (configuration not stated) | > 100 µM | > 100 µM | > 100 µM | – | > 100 µM | – | > 100 µM | > 100 µM | – | – | – | – | – | > 100 µM | > 100 µM | – | – | –
ICC1CCCO1 (configuration not stated) | > 100 µM | > 100 µM | > 100 µM | > 100 µM | > 100 µM | > 100 µM | > 100 µM | – | – | – | – | – | – | > 100 µM | > 100 µM | – | – | –
